Assay results reported in ChEMBL document CHEMBL6092162, “Identification of novel and potent triazoles targeting CYP51 for antifungal: Design, synthesis, and biological study” (Eur J Med Chem, 2024).
≈ marks a conversion by molar mass, not a printed value.

Tests used:
Format in all cases: functional
[1] = test system: Candida albicans; test: Antifungal activity against Candida albicans SC5314 assessed as inhibition of fungal growth by CLSI M27-A3 guidelines based method
[2] = test system: Candida albicans; test: Antifungal activity against Candida albicans GIM 2.194 assessed as inhibition of fungal growth by CLSI M27-A3 guidelines based method
[3] = test system: Candida tropicalis; test: Antifungal activity against Candida tropicalis GIM 2.183 assessed as inhibition of fungal growth by CLSI M27-A3 guidelines based method
[4] = test system: Candida parapsilosis; test: Antifungal activity against Candida parapsilosis GIM 2.190 assessed as inhibition of fungal growth by CLSI M27-A3 guidelines based method; settings: Lodderomyces parapsilosis
[5] = test system: Nakaseomyces glabratus; test: Antifungal activity against Candida glabrata assessed as inhibition of fungal growth by CLSI M27-A3 guidelines based method
[6] = test system: Cryptococcus neoformans; test: Antifungal activity against Cryptococcus neoformans CGMCC 2.3161 assessed as inhibition of fungal growth by CLSI M27-A3 guidelines based method
[7] = test system: Candida albicans; test: Antifungal activity against fluconazole and iodiconazole resistant Candida albicans clinical isolate 17# assessed as inhibition of fungal growth by CLSI M27-A3 guidelines based method
[8] = test system: Candida albicans; test: Antifungal activity against fluconazole-resistant Candida albicans CaR assessed as inhibition of fungal growth by CLSI M27-A3 guidelines based method
[9] = test system: Candida albicans; test: Antifungal activity against fluconazole-resistant Candida albicans clinical isolate 901 assessed as inhibition of fungal growth by CLSI M27-A3 guidelines based method
[10] = test system: Candida albicans; test: Antifungal activity against fluconazole-resistant Candida albicans clinical isolate 904 assessed as inhibition of fungal growth by CLSI M27-A3 guidelines based method
[11] = test system: Candida albicans; test: Antifungal activity against fluconazole-resistant Candida albicans clinical isolate 632 assessed as inhibition of fungal growth by CLSI M27-A3 guidelines based method
[12] = test system: Candida albicans; test: Antifungal activity against fluconazole-resistant Candida albicans clinical isolate 100 assessed as inhibition of fungal growth by CLSI M27-A3 guidelines based method
[13] = test system: Candida albicans; test: Antifungal activity against fluconazole-resistant Candida albicans clinical isolate 103 assessed as inhibition of fungal growth by CLSI M27-A3 guidelines based method
[14] = test system: Candida albicans; test: Antifungal activity against fluconazole-resistant Candida albicans clinical isolate 311 assessed as inhibition of fungal growth by CLSI M27-A3 guidelines based method
[15] = test system: Pichia kudriavzevii; test: Antifungal activity against Candida krusei GIM 2.1 assessed as inhibition of fungal growth by CLSI M27-A3 guidelines based method

| SMILES | MIC80 [1] [µg/mL] | MIC80 [2] [µg/mL] | MIC80 [3] [µg/mL] | MIC80 [4] [µg/mL] | MIC80 [5] [µg/mL] | MIC80 [6] [µg/mL] | MIC80 [7] [µg/mL] | MIC80 [8] [µg/mL] | MIC80 [9] [µg/mL] | MIC80 [10] [µg/mL] | MIC80 [11] [µg/mL] | MIC80 [12] [µg/mL] | MIC80 [13] [µg/mL] | MIC80 [14] [µg/mL] | MIC80 [15] [µg/mL] |
| --- | --- | --- | --- | --- | --- | --- | --- | --- | --- | --- | --- | --- | --- | --- | --- |
| CN(Cc1ccc(N2CCN(Cc3ccc(C(C)(C)C)cc3)CC2)cc1)CC(O)(Cn1cncn1)c1ccc(F)cc1F (stereo not drawn) | 0.013 (≈ 0.0221 µM) | 0.006 (≈ 0.0102 µM) | 0.013 (≈ 0.0221 µM) | 0.006 (≈ 0.0102 µM) | 0.1 (≈ 0.17 µM) | 0.1 (≈ 0.17 µM) | 0.125 (≈ 0.212 µM) | 0.063 (≈ 0.107 µM) | > 64 | 32 (≈ 54.4 µM) | 16 (≈ 27.2 µM) | 8 (≈ 13.6 µM) | 8 (≈ 13.6 µM) | 8 (≈ 13.6 µM) |  |
| CN(Cc1ccc(N2CCN(Cc3cc(F)ccc3Br)CC2)cc1)CC(O)(Cn1cncn1)c1ccc(F)cc1F (stereo not drawn) | 0.013 (≈ 0.0207 µM) | 0.025 (≈ 0.0397 µM) | 0.006 (≈ 0.00953 µM) | 0.006 (≈ 0.00953 µM) | 0.1 (≈ 0.159 µM) |  | 0.25 (≈ 0.397 µM) | 0.063 (≈ 0.1 µM) | > 64 | 8 (≈ 12.7 µM) | 16 (≈ 25.4 µM) | 2 (≈ 3.18 µM) | 8 (≈ 12.7 µM) | 32 (≈ 50.8 µM) | 0.1 (≈ 0.159 µM) |
| CN(Cc1ccc(N2CCN(Cc3ccc(OC(F)(F)F)cc3)CC2)cc1)CC(O)(Cn1cncn1)c1ccc(F)cc1F (stereo not drawn) | 0.013 (≈ 0.0211 µM) | 0.013 (≈ 0.0211 µM) | 0.006 (≈ 0.00973 µM) | 0.025 (≈ 0.0405 µM) | 0.1 (≈ 0.162 µM) | 0.1 (≈ 0.162 µM) | 0.125 (≈ 0.203 µM) | 0.063 (≈ 0.102 µM) | > 64 | 32 (≈ 51.9 µM) | 32 (≈ 51.9 µM) | 8 (≈ 13 µM) | 32 (≈ 51.9 µM) | > 64 | 0.1 (≈ 0.162 µM) |
| CN(Cc1ccc(N2CCN(Cc3cccc(Br)c3)CC2)cc1)CC(O)(Cn1cncn1)c1ccc(F)cc1F (stereo not drawn) | 0.013 (≈ 0.0213 µM) | 0.013 (≈ 0.0213 µM) | 0.013 (≈ 0.0213 µM) | 0.006 (≈ 0.00981 µM) | 0.2 (≈ 0.327 µM) | 0.1 (≈ 0.164 µM) | 0.063 (≈ 0.103 µM) | 0.063 (≈ 0.103 µM) | > 64 | 16 (≈ 26.2 µM) | 8 (≈ 13.1 µM) | 8 (≈ 13.1 µM) | 32 (≈ 52.3 µM) | 32 (≈ 52.3 µM) | 0.1 (≈ 0.164 µM) |
| CN(Cc1ccc(N2CCN(Cc3ccc(Cl)cc3Br)CC2)cc1)CC(O)(Cn1cncn1)c1ccc(F)cc1F (stereo not drawn) | 0.006 (≈ 0.00929 µM) | 0.006 (≈ 0.00929 µM) | 0.006 (≈ 0.00929 µM) | 0.006 (≈ 0.00929 µM) |  |  | 1 (≈ 1.55 µM) | 0.125 (≈ 0.194 µM) | > 64 | 32 (≈ 49.5 µM) | 32 (≈ 49.5 µM) | 8 (≈ 12.4 µM) | > 64 | > 64 |  |
| CN(Cc1ccc(N2CCN(Cc3ccccc3Br)CC2)cc1)CC(O)(Cn1cncn1)c1ccc(F)cc1F (stereo not drawn) | 0.013 (≈ 0.0213 µM) | 0.006 (≈ 0.00981 µM) | 0.013 (≈ 0.0213 µM) | 0.006 (≈ 0.00981 µM) | 0.1 (≈ 0.164 µM) |  | 0.063 (≈ 0.103 µM) | 0.063 (≈ 0.103 µM) | > 64 | 16 (≈ 26.2 µM) | 8 (≈ 13.1 µM) | 4 (≈ 6.54 µM) | 16 (≈ 26.2 µM) | 32 (≈ 52.3 µM) | 0.1 (≈ 0.164 µM) |
| CN(Cc1ccc(N2CCN(Cc3ccc(C(F)(F)F)cc3)CC2)cc1)CC(O)(Cn1cncn1)c1ccc(F)cc1F (stereo not drawn) | 0.013 (≈ 0.0216 µM) | 0.013 (≈ 0.0216 µM) | 0.013 (≈ 0.0216 µM) | 0.013 (≈ 0.0216 µM) | 0.1 (≈ 0.166 µM) | 0.1 (≈ 0.166 µM) | 0.125 (≈ 0.208 µM) | 0.063 (≈ 0.105 µM) | > 64 | 32 (≈ 53.3 µM) | 16 (≈ 26.6 µM) | 8 (≈ 13.3 µM) | 32 (≈ 53.3 µM) | 32 (≈ 53.3 µM) |  |
